Counter-ions that a name gives are not always drawn.
What was measured:
Format in all cases: physicochemical
[1] = Solid-state stability of Form III (mechanical milling; storage at 60 °C sealed)
[2] = Moisture adsorption / hygroscopicity (DVS); conditions: for Hygroscopicity: result in words
[3] = Stability at room temperature (10 days)

Row | Compound | crystalline form after storage ([1]; 60 °C/sealed condition for 7 days) | purity ([1]; after storage at 60 °C/sealed condition for 7 days) | purity ([1]; before storage at 60 °C/sealed condition) | crystalline form after mechanical milling ([1]; mechanical milling for 2 minutes) | water absorption (DVS) ([2]; 80% RH) | water absorption (DVS) ([2]; 90% humidity) | Stability at room temperature (10 days) [3] | Moisture adsorption content (wt%) [2] | Hygroscopicity [2]
1 | CCCCCCOC(=O)NC(=N)c1ccc(CNC(=O)[C@@H]2CCCN2C(=O)[C@@H](CC(C)C)NCC(=O)OCC)cc1 [Form III] | converted to Form I | 89.35% | 95.81% | converted to Form I | 28.8% | 50.0% | – | – | –
2 | CCCCCCOC(=O)NC(=N)c1ccc(CNC(=O)[C@@H]2CCCN2C(=O)[C@@H](CC(C)C)NCC(=O)OCC)cc1 [Form A of the monohydrochloride] | – | – | – | – | – | – | White powder, crystalline form remains unchanged (10 days) | 0.5 wt% | Slightly hygroscopic
3 | CCCCCCOC(=O)NC(=N)c1ccc(CNC(=O)[C@@H]2CCCN2C(=O)[C@@H](CC(C)C)NCC(=O)OCC)cc1 [Form B of the monohydrochloride] | – | – | – | – | – | – | White powder, crystalline form remains unchanged (10 days) | 3.0 wt% | Hygroscopic

Reference: EP4667482A1, “SALT OF DIPEPTIDE COMPOUND, PREPARATION METHOD THEREFOR, AND USE THEREOF” (Zhejiang Huahai Pharmaceutical Co., Ltd., priority 2023, dated 2024)
